Source: ChEMBL document CHEMBL1126045, “Alanine series of ovine corticotropin releasing factor (oCRF): a structure-activity relationship study” (J Med Chem, 1992)

Target: Corticotropin releasing factor receptor (Rattus norvegicus) (UniProt P47866+P35353)
Assay: In vitro ability (peptide) to stimulate ACTH release by rat anterior pituitary cells relative to Ovine corticotropin releasing factor (oCRF).
Assay type: cell-based
Set-up: unit not given here
Settings: Pituitary gland cell

Chain of Corticotropin releasing factor receptor (Rattus norvegicus) (P35353 whole entry, looked up): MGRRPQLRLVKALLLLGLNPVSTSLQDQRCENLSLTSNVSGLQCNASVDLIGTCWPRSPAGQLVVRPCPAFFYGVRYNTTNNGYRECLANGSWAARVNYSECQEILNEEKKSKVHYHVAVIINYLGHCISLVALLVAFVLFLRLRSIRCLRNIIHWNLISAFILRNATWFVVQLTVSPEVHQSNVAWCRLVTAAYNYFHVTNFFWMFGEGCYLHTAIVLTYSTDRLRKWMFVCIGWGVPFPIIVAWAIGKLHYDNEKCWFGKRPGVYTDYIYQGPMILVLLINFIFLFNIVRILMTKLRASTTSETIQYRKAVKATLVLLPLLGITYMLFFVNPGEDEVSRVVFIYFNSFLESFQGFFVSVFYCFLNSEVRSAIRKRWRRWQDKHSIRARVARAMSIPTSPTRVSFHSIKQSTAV
Chain of Corticotropin releasing factor receptor (Rattus norvegicus) (P47866 whole entry, looked up): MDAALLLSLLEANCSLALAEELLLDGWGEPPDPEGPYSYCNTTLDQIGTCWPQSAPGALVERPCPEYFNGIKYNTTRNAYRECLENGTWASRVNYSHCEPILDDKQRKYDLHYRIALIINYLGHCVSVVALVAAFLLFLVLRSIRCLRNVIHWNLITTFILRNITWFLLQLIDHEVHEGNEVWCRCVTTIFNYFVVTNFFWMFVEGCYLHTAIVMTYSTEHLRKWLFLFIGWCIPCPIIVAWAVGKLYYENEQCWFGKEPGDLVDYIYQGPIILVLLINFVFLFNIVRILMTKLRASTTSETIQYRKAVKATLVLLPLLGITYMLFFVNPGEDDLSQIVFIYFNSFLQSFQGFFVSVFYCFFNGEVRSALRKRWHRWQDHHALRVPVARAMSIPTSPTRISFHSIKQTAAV

| Compound | Relative potency |
| --- | --- |
| CC[C@H](C)[C@H](NC(=O)[C@H](C)NC(=O)[C@@H]1CCCN1C(=O)[C@H](CCC(=O)O)NC(=O)[C@H](CCC(N)=O)NC(=O)[C@@H](N)CO)C(=O)N[C@@H](CO)C(=O)N[C@@H](CC(C)C)C(=O)N[C@@H](CC(=O)O)C(=O)N[C@@H](CC(C)C)C(=O)N[C@H](C(=O)N[C@@H](Cc1ccccc1)C(=O)N[C@@H](Cc1c[nH]cn1)C(=O)N[C@@H](CC(C)C)C(=O)N[C@@H](CC(C)C)C(=O)N[C@@H](CCCN=C(N)N)C(=O)N[C@@H](CCC(=O)O)C(=O)N[C@H](C(=O)N[C@@H](CC(C)C)C(=O)N[C@@H](CCC(=O)O)C(=O)N[C@@H](CCSC)C(=O)N[C@H](C(=O)N[C@@H](CCCCN)C(=O)N[C@@H](C)C(=O)N[C@@H](CC(=O)O)C(=O)N[C@@H](CCC(N)=O)C(=O)N[C@@H](CC(C)C)C(=O)N[C@@H](C)C(=O)N[C@@H](CCC(N)=O)C(=O)N[C@@H](CCC(N)=O)C(=O)N[C@@H](C)C(=O)N[C@@H](Cc1c[nH]cn1)C(=O)N[C@@H](CO)C(=O)N[C@@H](CC(N)=O)C(=O)N[C@@H](CCCN=C(N)N)C(=O)N[C@@H](CCCCN)C(=O)N[C@@H](CC(C)C)C(=O)N[C@@H](CC(C)C)C(=O)N[C@@H](CC(=O)O)C(=O)N[C@H](C(=O)N[C@@H](C)C(N)=O)[C@@H](C)CC)[C@@H](C)O)C(C)C)[C@@H](C)O | 0.6 |
| CC[C@H](C)[C@H](NC(=O)[C@H](CC(=O)O)NC(=O)[C@H](CC(C)C)NC(=O)[C@H](CC(C)C)NC(=O)[C@H](CCCCN)NC(=O)[C@H](CCCN=C(N)N)NC(=O)[C@H](CC(N)=O)NC(=O)[C@H](CO)NC(=O)[C@H](Cc1c[nH]cn1)NC(=O)[C@H](C)NC(=O)[C@H](CCC(N)=O)NC(=O)[C@H](CCC(N)=O)NC(=O)[C@H](C)NC(=O)[C@H](CC(C)C)NC(=O)[C@H](CCC(N)=O)NC(=O)[C@H](CC(=O)O)NC(=O)[C@H](C)NC(=O)[C@H](CCCCN)NC(=O)[C@@H](NC(=O)[C@H](CCSC)NC(=O)[C@H](CCC(=O)O)NC(=O)[C@H](CC(C)C)NC(=O)[C@@H](NC(=O)[C@H](CCC(=O)O)NC(=O)[C@H](CCCN=C(N)N)NC(=O)[C@H](CC(C)C)NC(=O)[C@H](CC(C)C)NC(=O)[C@H](Cc1c[nH]cn1)NC(=O)[C@H](Cc1ccccc1)NC(=O)[C@@H](NC(=O)[C@H](CC(C)C)NC(=O)[C@H](CC(=O)O)NC(=O)[C@H](CC(C)C)NC(=O)[C@H](CO)NC(=O)[C@H](C)NC(=O)[C@@H]1CCCN1C(=O)[C@@H]1CCCN1C(=O)[C@H](CCC(=O)O)NC(=O)[C@H](CCC(N)=O)NC(=O)[C@@H](N)CO)[C@@H](C)O)C(C)C)[C@@H](C)O)C(=O)N[C@@H](C)C(N)=O | 0.004 |
| CC[C@H](C)[C@H](NC(=O)[C@H](CC(=O)O)NC(=O)[C@H](CC(C)C)NC(=O)[C@H](CC(C)C)NC(=O)[C@H](CCCCN)NC(=O)[C@H](CCCNC(=N)N)NC(=O)[C@H](CC(N)=O)NC(=O)[C@H](CO)NC(=O)[C@H](Cc1cnc[nH]1)NC(=O)[C@H](C)NC(=O)[C@H](CCC(N)=O)NC(=O)[C@H](CCC(N)=O)NC(=O)[C@H](C)NC(=O)[C@H](CC(C)C)NC(=O)[C@H](CCC(N)=O)NC(=O)[C@H](CC(=O)O)NC(=O)[C@H](C)NC(=O)[C@H](CCCCN)NC(=O)[C@@H](NC(=O)[C@H](CCSC)NC(=O)[C@H](CCC(=O)O)NC(=O)[C@H](CC(C)C)NC(=O)[C@@H](NC(=O)[C@H](CCC(=O)O)NC(=O)[C@H](CCCNC(=N)N)NC(=O)[C@H](CC(C)C)NC(=O)[C@H](CC(C)C)NC(=O)[C@H](Cc1cnc[nH]1)NC(=O)[C@H](Cc1ccccc1)NC(=O)[C@@H](NC(=O)[C@H](CC(C)C)NC(=O)[C@H](CC(=O)O)NC(=O)[C@H](CC(C)C)NC(=O)[C@H](CO)NC(=O)[C@@H](NC(=O)[C@@H]1CCCN1C(=O)[C@@H]1CCCN1C(=O)[C@H](CCC(=O)O)NC(=O)[C@H](CCC(N)=O)NC(=O)[C@@H](N)CO)[C@@H](C)CC)[C@@H](C)O)C(C)C)[C@@H](C)O)C(=O)N[C@@H](C)C(N)=O | 1 |
| H-SQEPPISLDLTAHLLREVLEMTKADQLAQQAHSNRKLLDIA-NH2 | 0.006 |
| H-SQEPPISLDLTFALLREVLEMTKADQLAQQAHSNRKLLDIA-NH2 | 0.14 |
| H-SQEPPISLDLTFHLAREVLEMTKADQLAQQAHSNRKLLDIA-NH2 | 0.09 |
| H-SQEPPISLDLTFHLLRAVLEMTKADQLAQQAHSNRKLLDIA-NH2 | 0.6 |
| H-SQEPPISLDLTFHLLREVLEMAKADQLAQQAHSNRKLLDIA-NH2 | 3.4 |
| H-SQEPPISLDLTFHLLREVLEMTAADQLAQQAHSNRKLLDIA-NH2 | 0.28 |
| H-SQEPPISLDLTFHLLREVLEMTKADALAQQAHSNRKLLDIA-NH2 | 1.1 |
| H-SQEPPISLDLTFHLLREVLEMTKADQLAQAAHSNRKLLDIA-NH2 | 0.8 |
| H-SQEPPISLDLTFHLLREVLEMTKADQLAQQAASNRKLLDIA-NH2 | 4.5 |
| H-SQEPPISLDLTFHLLREVLEMTKADQLAQQAHSARKLLDIA-NH2 | 1.1 |
| H-SQEPPISLDLTFHLLREVLEMTKADQLAQQAHSNAKLLDIA-NH2 | 0.02 |
| H-SQEPPISLDLTFHLLREVLEMTKADQLAQQAHSNRALLDIA-NH2 | 0.8 |
| H-SQEPPISLDLTFHLLREVLEMTKADQLAQQAHSNRKLLAIA-NH2 | 1.8 |

More lines, now with the values ahead:

| Relative potency | Compound |
| --- | --- |
| 0.006 | CC[C@H](C)[C@H](NC(=O)[C@H](CC(=O)O)NC(=O)[C@H](CC(C)C)NC(=O)[C@H](CC(C)C)NC(=O)[C@H](CCCCN)NC(=O)[C@H](CCCN=C(N)N)NC(=O)[C@H](CC(N)=O)NC(=O)[C@H](CO)NC(=O)[C@H](Cc1c[nH]cn1)NC(=O)[C@H](C)NC(=O)[C@H](CCC(N)=O)NC(=O)[C@H](CCC(N)=O)NC(=O)[C@H](C)NC(=O)[C@H](CC(C)C)NC(=O)[C@H](CCC(N)=O)NC(=O)[C@H](CC(=O)O)NC(=O)[C@H](C)NC(=O)[C@H](CCCCN)NC(=O)[C@@H](NC(=O)[C@H](CCSC)NC(=O)[C@H](CCC(=O)O)NC(=O)[C@H](CC(C)C)NC(=O)[C@@H](NC(=O)[C@H](CCC(=O)O)NC(=O)[C@H](CCCN=C(N)N)NC(=O)[C@H](CC(C)C)NC(=O)[C@H](CC(C)C)NC(=O)[C@H](Cc1c[nH]cn1)NC(=O)[C@H](Cc1ccccc1)NC(=O)[C@@H](NC(=O)[C@H](C)NC(=O)[C@H](CC(=O)O)NC(=O)[C@H](CC(C)C)NC(=O)[C@H](CO)NC(=O)[C@@H](NC(=O)[C@@H]1CCCN1C(=O)[C@@H]1CCCN1C(=O)[C@H](CCC(=O)O)NC(=O)[C@H](CCC(N)=O)NC(=O)[C@@H](N)CO)[C@@H](C)CC)[C@@H](C)O)C(C)C)[C@@H](C)O)C(=O)N[C@@H](C)C(N)=O |
| 0.004 | CC[C@H](C)[C@H](NC(=O)[C@H](CC(=O)O)NC(=O)[C@H](CC(C)C)NC(=O)[C@H](CC(C)C)NC(=O)[C@H](CCCCN)NC(=O)[C@H](CCCN=C(N)N)NC(=O)[C@H](CC(N)=O)NC(=O)[C@H](CO)NC(=O)[C@H](Cc1c[nH]cn1)NC(=O)[C@H](C)NC(=O)[C@H](CCC(N)=O)NC(=O)[C@H](CCC(N)=O)NC(=O)[C@H](C)NC(=O)[C@H](CC(C)C)NC(=O)[C@H](CCC(N)=O)NC(=O)[C@H](CC(=O)O)NC(=O)[C@H](C)NC(=O)[C@H](CCCCN)NC(=O)[C@@H](NC(=O)[C@H](CCSC)NC(=O)[C@H](CCC(=O)O)NC(=O)[C@H](CC(C)C)NC(=O)[C@@H](NC(=O)[C@H](CCC(=O)O)NC(=O)[C@H](CCCN=C(N)N)NC(=O)[C@H](CC(C)C)NC(=O)[C@H](CC(C)C)NC(=O)[C@H](Cc1c[nH]cn1)NC(=O)[C@H](Cc1ccccc1)NC(=O)[C@@H](NC(=O)[C@H](CC(C)C)NC(=O)[C@H](C)NC(=O)[C@H](CC(C)C)NC(=O)[C@H](CO)NC(=O)[C@@H](NC(=O)[C@@H]1CCCN1C(=O)[C@@H]1CCCN1C(=O)[C@H](CCC(=O)O)NC(=O)[C@H](CCC(N)=O)NC(=O)[C@@H](N)CO)[C@@H](C)CC)[C@@H](C)O)C(C)C)[C@@H](C)O)C(=O)N[C@@H](C)C(N)=O |
| 0.4 | CC[C@H](C)[C@H](NC(=O)[C@H](CC(=O)O)NC(=O)[C@H](CC(C)C)NC(=O)[C@H](CC(C)C)NC(=O)[C@H](CCCCN)NC(=O)[C@H](CCCN=C(N)N)NC(=O)[C@H](CC(N)=O)NC(=O)[C@H](CO)NC(=O)[C@H](Cc1c[nH]cn1)NC(=O)[C@H](C)NC(=O)[C@H](CCC(N)=O)NC(=O)[C@H](CCC(N)=O)NC(=O)[C@H](C)NC(=O)[C@H](CC(C)C)NC(=O)[C@H](CCC(N)=O)NC(=O)[C@H](CC(=O)O)NC(=O)[C@H](C)NC(=O)[C@H](CCCCN)NC(=O)[C@@H](NC(=O)[C@H](CCSC)NC(=O)[C@H](CCC(=O)O)NC(=O)[C@H](CC(C)C)NC(=O)[C@@H](NC(=O)[C@H](CCC(=O)O)NC(=O)[C@H](CCCN=C(N)N)NC(=O)[C@H](CC(C)C)NC(=O)[C@H](CC(C)C)NC(=O)[C@H](Cc1c[nH]cn1)NC(=O)[C@H](Cc1ccccc1)NC(=O)[C@H](C)NC(=O)[C@H](CC(C)C)NC(=O)[C@H](CC(=O)O)NC(=O)[C@H](CC(C)C)NC(=O)[C@H](CO)NC(=O)[C@@H](NC(=O)[C@@H]1CCCN1C(=O)[C@@H]1CCCN1C(=O)[C@H](CCC(=O)O)NC(=O)[C@H](CCC(N)=O)NC(=O)[C@@H](N)CO)[C@@H](C)CC)C(C)C)[C@@H](C)O)C(=O)N[C@@H](C)C(N)=O |
| 0.02 | H-SQEPPISLDLTFHLLAEVLEMTKADQLAQQAHSNRKLLDIA-NH2 |
| 0.5 | H-SQEPPISLDLTFHLLREALEMTKADQLAQQAHSNRKLLDIA-NH2 |
| 0.09 | H-SQEPPISLDLTFHLLREVAEMTKADQLAQQAHSNRKLLDIA-NH2 |
| 0.4 | H-SQEPPISLDLTFHLLREVLEATKADQLAQQAHSNRKLLDIA-NH2 |
| 1.7 | H-SQEPPISLDLTFHLLREVLEMTKAAQLAQQAHSNRKLLDIA-NH2 |
| 2 | H-SQEPPISLDLTFHLLREVLEMTKADQLAQQAHANRKLLDIA-NH2 |
| 0.7 | H-SQEPPISLDLTFHLLREVLEMTKADQLAQQAHSNRKALDIA-NH2 |
| 1.7 | H-SQEPPISLDLTFHLLREVLEMTKADQLAQQAHSNRKLLDAA-NH2 |
